The assay relates to HCV GT1b (Con1, HCV-1b) replicon. Kind of assay: HCV GT1b replicon 2-drug combination assay (firefly luciferase, MacSynergy II). Type of assay: cell-based, Hepatitis C virus. Also on record: Synergy volume / Antagonism volume: unit not given here. The settings on record: for Antagonism volume / Synergy volume: 3 days, 0.125-8x EC50. On the procedure: Materials: Cells—The HCV GT1b (Con1, HCV-1b) replicon cells were generated and provided by WuXi AppTec. The HCV-1b replicon cells are Huh7 cells stably transfected with the HCV GT1b replicon containing the HCV subgenome, resistance selection gene NEO and reporter gene firefly luciferase.
Software—HCV replicon data was analyzed using MacSynergy™ II software.
Methods: This study was to assess combination effects of the Compound A with other HCV antivirals on HCV replicon replication in the HCV GT1b replicon assay.
The 2-drug combination experiment was designed using a checkboard cross pattern of 7 drug concentrations of each agent, including each agent alone, in triplicate, plated with the Automated Liquid Workstation (Labcyte, Echo555). The concentrations of the test compounds were 0.125, 0.25, 0.5, 1, 2, 4, 8× EC50 values. The EC50 values of the test compounds were determined in a separate HCV GT1b replicon assay. The regimens of the compound combinations are listed in Table 1—where each regimen includes Compound A as the first compound. The final concentration of DMSO in the cell culture medium was 0.5%.
The HCV-1b cells were seeded at a density of 8,000 cells per well in 96-well plates and cultured in DMEM containing 10% FBS at 5% CO2 and 37° C. The replicon cells were treated with the compounds for 3 days.
The antiviral activity of the compounds was determined by monitoring activity of the replicon reporter firefly luciferase using Bright Glo in accordance with the protocol provided by the supplier. The combination indices were calculated using the MacSynergy™ II software. A positive combination index value indicates synergism, and a negative combination index value indicates antagonism.

Setting [1] is: 2nd inhibitor (NS3 protease inhibitor table, incl. ribavirin) in combination with Compound A.
[2] abbreviates: 2nd inhibitor (NS5B nucleoside inhibitor) in combination with Compound A.
The mark [3] stands for this setting: 2nd inhibitor (NS5A inhibitor) in combination with Compound A.

Data on twelve compounds can be found in patent US11752166B2, “Combination therapy for treatment of HCV” (COCRYSTAL PHARMA, INC., priority 2018, dated 2023).

Consider `C=C[C@@H]1C[C@]1(NC(=O)[C@@H]1C[C@@H](Oc2ncc(OC)c3ccc(Cl)cc23)CN1C(=O)[C@@H](NC(=O)OC(C)(C)C)C(C)(C)C)C(=O)NS(=O)(=O)C1CC1` [Asunaprevir], for which, under setting [1], the Combination regimen effect entry is on record as “Additive”, the Antagonism volume is −1.32 and the Synergy volume is 4.9.

Take `CNC(=O)c1c(-c2ccc(F)cc2)oc2cc(N(CCCCCOCc3ccc(C(=O)O)cc3)S(C)(=O)=O)c(C3CC3)cc12` [Compound A]: the Combination effect result (with HCV NS5B nucleoside inhibitors, NS5A inhibitors, NS3 protease inhibitors, NS3 helicase inhibitors, and ribavirin) is recorded as “either additive or synergistic effect”.

As for `CC(C)OC(=O)[C@@H](C)NP(=O)(OC[C@@H]1O[C@H](n2ccc(NO)nc2=O)[C@@](C)(O)[C@H]1O)Oc1ccccc1` (stereo partly drawn) [Compound B], under setting [2], the Combination regimen effect result is listed as “Additive”, the Antagonism volume was 0.00 and the Synergy volume amounted to 3.30.

For `COC(=O)N[C@H](C(=O)N1C[C@H](SC)C[C@@H]1c1ncc(-c2ccc(-c3ccc(-c4[nH]c([C@@H]5CCCN5C(=O)[C@@H](NC(=O)OC)c5ccccc5)nc4Cl)cc3)cc2)[nH]1)c1ccccc1` [Compound C], under setting [3], the Combination regimen effect result is reported as “Additive”, the Antagonism volume was found to be 0 and the Synergy volume was 3.57.

For `COC(=O)N[C@H](C(=O)N1CCC[C@H]1c1nc(-c2ccc(-c3ccc(-c4c[nH]c([C@@H]5CCCN5C(=O)[C@@H](NC(=O)OC)C(C)C)n4)cc3)cc2)c[nH]1)C(C)C` [Daclatasvir], under setting [3], the Antagonism volume is on record as −3.05 and the Synergy volume is reported as 33.47.

On to `CC(C)(C)[C@@H]1NC(=O)O[C@@H]2CCC[C@H]2OC/C=C/C(F)(F)c2nc3ccccc3nc2O[C@@H]2C[C@@H](C(=O)N[C@]3(C(=O)NS(=O)(=O)C4(C)CC4)C[C@H]3C(F)F)N(C2)C1=O` [Glecaprevir], for which, under setting [1], the Combination regimen effect result is reported as “Minor synergism”, the Antagonism volume came to 0.00 and the Synergy volume amounted to 47.37.

With `COC(=O)N[C@H](C(=O)N1CC2(CC2)C[C@H]1c1nc(-c2ccc3c(c2)C(F)(F)c2cc(-c4ccc5[nH]c([C@@H]6[C@H]7CC[C@H](C7)N6C(=O)[C@@H](NC(=O)OC)C(C)C)nc5c4)ccc2-3)c[nH]1)C(C)C` [Ledipasvir], under setting [3], the Combination regimen effect entry is given as “Minor synergy”, the Antagonism volume is −1.08 and the Synergy volume is on record as 38.55.

`COC(=O)N[C@H](C(=O)N1CCC[C@H]1c1nc2cc([C@H]3CC[C@H](c4cc5nc([C@@H]6CCCN6C(=O)[C@@H](NC(=O)OC)[C@@H](C)OC)[nH]c5cc4F)N3c3cc(F)c(N4CCC(c5ccc(F)cc5)CC4)c(F)c3)c(F)cc2[nH]1)[C@@H](C)OC` [Pibrentasvir]: under setting [3], the Combination regimen effect entry was “Additive”, the Antagonism volume is recorded as −24.59 and the Synergy volume is reported as 5.7.

Regarding `NC(=O)c1ncn([C@@H]2O[C@H](CO)[C@@H](O)[C@H]2O)n1` [Ribavirin], under setting [1], the Combination regimen effect result is on record as “Additive”, the Antagonism volume was −9.76 and the Synergy volume worked out at 0.24.

On to `COc1ccc2c(O[C@@H]3C[C@H]4C(=O)N[C@]5(C(=O)NS(=O)(=O)C6CC6)C[C@H]5/C=C\CCCCN(C)C(=O)[C@@H]4C3)cc(-c3nc(C(C)C)cs3)nc2c1C` [Simprevir, Simeprevir], for which, under setting [1], the Combination regimen effect entry is “Additive”, the Antagonism volume was determined as 0.00 and the Synergy volume came to 13.39.

Regarding `CC(C)OC(=O)[C@H](C)N[P@](=O)(OC[C@H]1O[C@@H](n2ccc(=O)[nH]c2=O)[C@](C)(F)[C@@H]1O)Oc1ccccc1` [Sofosbuvir], under setting [2], the Combination regimen effect result is recorded as “Additive”, the Antagonism volume is listed as 0.00 and the Synergy volume was determined as 9.47.

As to `COC[C@H]1C[C@@H](c2nc(-c3ccc4c(c3)COc3cc5c(ccc6nc([C@@H]7CC[C@H](C)N7C(=O)[C@@H](NC(=O)OC)C(C)C)[nH]c65)cc3-4)c[nH]2)N(C(=O)[C@H](NC(=O)OC)c2ccccc2)C1` [Velpatasvir], under setting [3], the Combination regimen effect result is reported as “Additive”, the Antagonism volume is recorded as −7.92 and the Synergy volume amounted to 0.76.
